Data published in patent US6730680B2 (priority 1999, dated 2004).
≈ marks a conversion by molar mass, not a printed value.

Columns and labels:
[1] = test system: Pyricularia oryzae; test: microbe, parasite or virus in culture; type: cell-based; conditions: read-out: MIC (Minimum Inhibitory Concentration)

SMILES | melting point | MIC [1]
CC(C)Nc1c(-c2c(F)cc(F)cc2F)c(Cl)nc2ccnn12 | 143 °C | –
CC(C)N(C)c1c(-c2c(F)cc(F)cc2F)c(Cl)nc2ccnn12 | 109 °C | –
Fc1cc(F)c(-c2c(Cl)nc3ccnn3c2NC2CCCC2)c(F)c1 | 128 °C | –
CCN(CC)c1c(-c2c(F)cc(F)cc2F)c(Cl)nc2ccnn12 | 90 °C | –
Fc1cc(F)c(-c2c(Cl)nc3ccnn3c2NCC(F)(F)F)c(F)c1 [Example I-7, [5-chloro-6-(2,4,6-trifluoro-phenyl)-pyrazolo[1,5-α]pyrimidin-7-yl]-(2,2,2-trifluoro-ethyl)-amine] | – | 0.78 µg/mL (≈ 2.05 µM)
